According to patent US9815791B2, “Alkylpyrazolyl guanidine F1F0-ATPase inhibitors and therapeutic uses thereof” (Lycera Corporation, priority 2013, dated 2017):

test system: Ramos cells; assay: Cytotoxicity in Ramos cells; type: cell-based; conditions: Homo sapiens, read-out: Ramos Cell EC50
Description: Exemplary compounds described in above Examples were tested for activity against F1F0-ATPase by measuring the ability of the compounds to inhibit ATP synthesis. In addition, the compounds were assessed for cytotoxicity in Ramos cells. Inhibition of F1F0-ATPase activity in synthesizing ATP and cytotoxicity in Ramos cells were measured according to the procedures described in K. M. Johnson et al. Chemistry & Biology 2005, 12, 485-496.

Row | SMILES | EC50 [µM]
1 | Cc1c(NC(=NC(=O)c2ccc(Cl)cc2Cl)Nc2ccc(Cl)cc2Cl)n[nH]c1C(F)(F)F [Compound A-32] | < 10
2 | COc1ccc(C(=O)N=C(Nc2cc(F)cc(Cl)c2)Nc2n[nH]c(C(F)(F)F)c2C)cc1 [Compound A-2] | < 10
3 | CCn1nc(C(F)(F)F)c(C)c1N/C(=N\C(=O)c1ccc(F)c(F)c1)Nc1cccc(Cl)c1 [Compound A-22] | < 10
4 | Cc1c(NC(=NC(=O)c2ccc(Cl)cc2Cl)Nc2cccc(Cl)c2)n[nH]c1C(F)(F)F [Compound A-9] | < 10
5 | Cc1c(N/C(=N\C(=O)c2ccc(F)c(F)c2)Nc2cc(F)cc(Cl)c2)n[nH]c1C(F)(F)F [Compound 1, N-(((3-Chloro-5-fluorophenyl)amino)((4-methyl-5-(trifluoromethyl)-1H-pyrazol-3-yl)amino)methylene)-3,4-difluorobenzamide] | < 10
6 | Cc1ccc(N/C(=N/C(=O)c2ccc(F)c(F)c2)Nc2[nH]nc(C(F)(F)F)c2C)c(Cl)c1 [Compound A-31] | < 10
7 | Cc1c(NC(=NC(=O)c2ccc(Cl)cc2Cl)Nc2cccc(C(F)(F)F)c2)n[nH]c1C(F)(F)F [Compound A-8] | < 10
8 | Cc1c(NC(=NC(=O)c2ccc(Cl)c(F)c2)Nc2cc(F)cc(Cl)c2)n[nH]c1C(F)(F)F [Compound A-39] | < 10
9 | Cc1ccc(NC(=NC(=O)c2cccc(Cl)c2)Nc2n[nH]c(C(F)(F)F)c2C)c(Cl)c1 [Compound A-35] | < 10
10 | Cc1c(NC(=NC(=O)c2cccc(Cl)c2)Nc2cccc(Cl)c2)n[nH]c1C(F)(F)F [Compound A-7] | < 10
11 | CCn1nc(C(F)(F)F)c(C)c1N/C(=N\C(=O)c1ccc(Cl)c(F)c1)Nc1cc(F)cc(Cl)c1 [Compound A-27] | < 10
12 | COc1ccc(C(=O)N=C(Nc2cccc(Cl)c2)Nc2n[nH]c(C(F)(F)F)c2C)cc1 [Compound A-10] | < 10
13 | CCn1nc(C(F)(F)F)c(C)c1N/C(=N\C(=O)c1cccc(Cl)c1)Nc1cccc(Cl)c1 [Compound A-19] | < 10
14 | CCn1nc(C(F)(F)F)c(C)c1N/C(=N\C(=O)c1ccc(Cl)cc1)Nc1cccc(C(F)(F)F)c1 [Compound A-25] | < 10
15 | Cc1c(NC(=NC(=O)c2ccc(Cl)cc2)Nc2cc(F)cc(Cl)c2)n[nH]c1C(F)(F)F [Compound A-36] | < 10
16 | CCn1nc(C(F)(F)F)c(C)c1N/C(=N\C(=O)c1ccc(Cl)cc1Cl)Nc1cccc(C(F)(F)F)c1 [Compound A-13] | < 10
17 | CCn1nc(C(F)(F)F)c(C)c1N/C(=N\C(=O)c1ccc(F)c(F)c1)Nc1cc(F)cc(Cl)c1 [Compound A-20] | < 10
18 | Cc1c(NC(=NC(=O)c2ccc(Cl)c(F)c2)Nc2cccc(Cl)c2)n[nH]c1C(F)(F)F [Compound A-41] | < 10
19 | Cc1c(C(F)(F)F)n[nH]c1NC(=NC(=O)c1ccc(F)c(F)c1)Nc1ccc(Cl)cc1Cl [Compound A-30] | < 10

Row | SMILES | EC50 [µM]
20 | CCn1nc(C(F)(F)F)c(C)c1N/C(=N\C(=O)c1cccc(Cl)c1)Nc1cccc(C(F)(F)F)c1 [Compound A-18] | < 10
21 | Cc1c(NC(=NC(=O)c2ccc(C(F)(F)F)cc2)Nc2cccc(Cl)c2)n[nH]c1C(F)(F)F [Compound A-42] | < 10
22 | CCn1nc(C(F)(F)F)c(C)c1N/C(=N\C(=O)c1ccc(Cl)c(F)c1)Nc1cccc(C(F)(F)F)c1 [Compound A-28] | < 10
23 | Cc1ccc(NC(=NC(=O)c2ccc(Cl)cc2Cl)Nc2n[nH]c(C(F)(F)F)c2C)c(Cl)c1 [Compound A-33] | < 10
24 | CCn1nc(C(F)(F)F)c(C)c1N/C(=N\C(=O)c1ccc(Cl)cc1Cl)Nc1cccc(Cl)c1 [Compound A-23] | < 10
25 | CCn1nc(C(F)(F)F)c(C)c1N/C(=N\C(=O)c1ccc(Cl)cc1)Nc1cc(F)cc(Cl)c1 [Compound A-24] | < 10
26 | CCn1nc(C(F)(F)F)c(C)c1N/C(=N\C(=O)c1ccc(Cl)cc1)Nc1cccc(Cl)c1 [Compound A-26] | < 10
27 | CCn1nc(C(F)(F)F)c(C)c1N/C(=N\C(=O)c1cccc(Cl)c1)Nc1cc(F)cc(Cl)c1 [Compound A-17] | < 10
28 | CCn1nc(C(F)(F)F)c(C)c1N/C(=N\C(=O)c1ccc(OC)cc1)Nc1cccc(C(F)(F)F)c1 [Compound A-15] | < 10
29 | Cc1c(C(F)(F)F)n[nH]c1NC(=NC(=O)c1ccc(Cl)cc1Cl)Nc1cc(F)cc(Cl)c1 [Compound A-11] | < 10
30 | CCn1nc(C(F)(F)F)c(C)c1N/C(=N\C(=O)c1ccc(OC)cc1)Nc1cc(F)cc(Cl)c1 [Compound A-14] | < 10
31 | Cc1c(NC(=NC(=O)c2ccc(Cl)cc2)Nc2cccc(Cl)c2)n[nH]c1C(F)(F)F [Compound A-38] | < 10
32 | CCn1nc(C(F)(F)F)c(C)c1N/C(=N\C(=O)c1ccc(Cl)c(F)c1)Nc1cccc(Cl)c1 [Compound A-29] | < 10
33 | CCn1nc(C(F)(F)F)c(C)c1N/C(=N\C(=O)c1ccc(OC)cc1)Nc1cccc(Cl)c1 [Compound A-16] | < 10
34 | Cc1c(N/C(=N\C(=O)c2cccc(Cl)c2)Nc2cc(F)cc(Cl)c2)n[nH]c1C(F)(F)F [Compound A-1] | < 10
35 | CCn1nc(C(F)(F)F)c(C)c1N/C(=N\C(=O)c1ccc(F)c(F)c1)Nc1cccc(C(F)(F)F)c1 [Compound A-21] | < 10
36 | Cc1c(NC(=NC(=O)c2ccc(Cl)cc2)Nc2cccc(C(F)(F)F)c2)n[nH]c1C(F)(F)F [Compound A-37] | < 10
37 | CCn1nc(C(F)(F)F)c(C)c1N/C(=N\C(=O)c1ccc(Cl)cc1Cl)Nc1cc(F)cc(Cl)c1 [Compound A-12] | < 10

test system: not listed separately; assay: Blood plasma levels after oral administration to mice; type: in vivo; conditions: mouse, 10 mg/kg, heading: AUC0-24, oral gavage, 5 mL/Kg of 2 mg/mL lipid emulsion
Description: (§1) Exemplary compounds were administered orally to animals (i.e., mice or rats), and then blood samples were taken from the animal at set time points and analyzed for the amount of test compound in the blood sample. Experimental procedures and results are described below.
(§2) A lipid emulsion containing the test compound was prepared by first dissolving the test compound in 1:4 Labrafil M1944:Solutol, then adding 0.5% carboxymethylcellulose in water with vigorous stirring to achieve a final ratio of 5:20:75 Labrafil:Solutol:0.5% aqueous CMC. The concentration of test compound in the lipid emulsion was 2 mg/mL.
(§3) Animals (mice or rats) were dosed by oral gavage using 5 mL/Kg of dosing solution. Animals were serially bled from the dorsal metatarsal vein (mice) or jugular vein (rats) at 30 minutes, 1 h, 2 h, 4 h, 8 h and 24 h post-dose. Test compounds 1 and B-1 were administered to a mice. Test compounds A-1 and B-2 were administered to rats.
(§4) The desired serial concentrations of working solutions were achieved by diluting a stock solution of analyte with 60% acetonitrile in water solution. A 5 μL aliquot of working solutions at 10, 20, 50, 100, 500, 1000, 5000, and 10000 ng/mL were added to 50 μL of blank plasma to achieve calibration standards of 1-1000 ng/mL (1, 2, 5, 10, 50, 100, 500, 1000 ng/mL) in a total volume of 55 μL.
(§5) Four quality control samples at 3 ng/mL (low 1), 5 ng/mL (low 2), 50 ng/mL (medium), and 800 ng/mL (high) were prepared independently of those used for the calibration curves. These QC samples were prepared on the day of analysis in the same way as calibration standards.
(§6) 55 μL standards, 55 μL QC samples, and 55 μL unknown samples were added to 200 μL of acetonitrile for precipitating protein respectively. Then, the samples were vortexed for 30 seconds at 4 degree Celsius. After centrifugation at 4 degree Celsius (i.e., 15000 rpm for 5 min) a 20 μL aliquot of the supernatant was analyzed by LC/MS. Unknowns were compared to standards to obtain test compound concentrations for each sample.

Row | SMILES | AUC(0-t) [µg·h/mL]
38 | O=C(/N=C(/Nc1cc(F)cc(Cl)c1)Nc1cc(C(F)(F)F)[nH]n1)c1ccc(F)c(F)c1 [Compound B-1, reference compound] | 4.53

same assay, conditions: mouse, 10 mg/kg, oral gavage, 5 mL/Kg of 2 mg/mL lipid emulsion

Row | SMILES | Cmax [µg/mL]
39 | Cc1c(N/C(=N\C(=O)c2ccc(F)c(F)c2)Nc2cc(F)cc(Cl)c2)n[nH]c1C(F)(F)F [Compound 1, N-(((3-Chloro-5-fluorophenyl)amino)((4-methyl-5-(trifluoromethyl)-1H-pyrazol-3-yl)amino)methylene)-3,4-difluorobenzamide] | 1.59
40 | O=C(/N=C(/Nc1cc(F)cc(Cl)c1)Nc1cc(C(F)(F)F)[nH]n1)c1ccc(F)c(F)c1 [Compound B-1, reference compound] | 0.609

same assay, conditions: mouse, 10 mg/kg, oral gavage, 5 mL/Kg of 2 mg/mL lipid emulsion, read-out: AUC0-24

Row | SMILES | AUC(0-t) [µg·h/mL]
41 | Cc1c(N/C(=N\C(=O)c2ccc(F)c(F)c2)Nc2cc(F)cc(Cl)c2)n[nH]c1C(F)(F)F [Compound 1, N-(((3-Chloro-5-fluorophenyl)amino)((4-methyl-5-(trifluoromethyl)-1H-pyrazol-3-yl)amino)methylene)-3,4-difluorobenzamide] | 8.76

test system: not listed separately; assay: Blood plasma levels after oral administration to rats; type: in vivo; conditions: rat, 10 mg/kg, heading: AUC0-24, oral gavage, 5 mL/Kg of 2 mg/mL lipid emulsion
Description: as §1, §2, §3, §4, §5, §6

Row | SMILES | AUC(0-t) [µg·h/mL]
42 | O=C(/N=C(/Nc1cc(F)cc(Cl)c1)Nc1cc(C(F)(F)F)[nH]n1)c1cccc(Cl)c1 [Compound B-2, reference compound] | 5.48
43 | Cc1c(N/C(=N\C(=O)c2cccc(Cl)c2)Nc2cc(F)cc(Cl)c2)n[nH]c1C(F)(F)F [Compound A-1] | 10.5

same assay, conditions: rat, 10 mg/kg, oral gavage, 5 mL/Kg of 2 mg/mL lipid emulsion

Row | SMILES | Cmax [µg/mL]
44 | O=C(/N=C(/Nc1cc(F)cc(Cl)c1)Nc1cc(C(F)(F)F)[nH]n1)c1cccc(Cl)c1 [Compound B-2, reference compound] | 0.541
45 | Cc1c(N/C(=N\C(=O)c2cccc(Cl)c2)Nc2cc(F)cc(Cl)c2)n[nH]c1C(F)(F)F [Compound A-1] | 1.44
